The results in this text go back to patent publication US20220125803A1, “METHODS FOR THE TREATMENT OF PERIMENOPAUSE AND MENOPAUSE” (Praxis Precision Medicines, Inc., priority 2019, published 2022).

The nature of data set [1]: Multiple escalating dose study, plasma pharmacokinetics, Cohorts 1-3. The class given is in vivo, human.
Procedure: Healthy subjects aged 18 to 55 years were treated with an oral suspension of Compound 1 to study the safety, tolerability, pharmacokinetics and pharmacodynamics of Compound 1 in healthy subjects.
The study was a randomized, double-blind, placebo-controlled multiple escalating dose study comprised of 3 cohorts that each received an oral suspension. Each cohort consisted of two groups: one group treated with Compound 1 and another treated with placebo. In each cohort, the ratio of Compound 1-treated subjects to placebo-treated subjects was 3:1.
The Compound 1-treated subjects of Cohort 1 were treated with 15.0 mg of Compound 1 once per day (QD). The Compound 1-treated subjects of Cohort 2 were treated with 30.0 mg of Compound 1 QD. The Compound 1-treated subjects of Cohort 3 were treated with 60.0 mg of Compound 1 QD.
Patients in each cohort were treated with Compound 1 for 14 consecutive days, unless dosing was halted by the Safety Review Committee (SRC). The dosing of subjects in each of the cohorts was staggered with the decision to dose escalate based on SRC review of a minimum of 14 days of observation of safety and tolerability data and review of the available plasma PK data from the preceding cohort(s). Thus, dose escalation was predicated on tolerability of the prior cohorts.
Compound 1 was administered under fasted conditions (no food or drink, except water, for at least 10 hours prior to dosing). Immediately after administration of Compound 1, the subject was be administered 240 mL water. No additional fluid intake was allowed until 1 hour after Compound 1 administration.
Cohort 1 subjects received a single 15.0 mg dose of a Compound 1 suspension on the morning of Days 1-14. Cohort 2 subjects received a single 30.0 mg dose of a Compound 1 suspension on the morning of Days 1-14. Cohort 3 subjects received a single 60.0 mg dose of a Compound 1 suspension on the morning of Days 1-14. For all cohorts, the last treatment was administered on the morning of Day 14.
Plasma samples were analyzed to determine Compound 1 concentrations using a validated assay method. Pharmacokinetic variables (including but not limited to Cmax, Tmax and AUC(0-last)) were calculated using non-compartmental analysis. PK parameters for Compound 1 were derived from the plasma concentration data using non-compartmental analysis with Phoenix™ WinNonlin® v 8.0 (Pharsight Corporation, USA).
Blood (Cohorts 1-3): For each cohort, blood samples were collected on Days 1, 2, 3, 4, 5, 6 and 14 at the following time points: Day 1 at pre-dose (0 hour), 0.25, 0.5, 0.75, 1, 1.5, 2, 2.5, 3, 4, 6, 8, 12, 16 h post-dose; Day 2 at pre-dose (24 h), Day 3 at pre-dose (48 h), Day 4 at pre-dose (72 h), Day 5 at pre-dose (96 h), Day 6 at pre-dose (120 h); Day 14 at pre-dose 0.25, 0.5, 0.75, 1, 1.5, 2, 2.5, 3, 4, 6, 8, 12, 16, 24, 36, 48, and 72 hours. Trough level blood samples were collected on Days 2, 3, 4, 5, 6 and 14, prior to the morning dose administrations.
Descriptive statistics were calculated for plasma and urine PK parameter and concentration data, and summarized by study day and time point. Arithmetic means, coefficient of variation (CV), standard deviation, median, minimum, and maximum values, and number of observations were calculated for all PK parameters and trough concentration data. Except for Tmax, the geometric mean, geometric standard deviation, and geometric CV were provided for all PK parameter and concentration data. […]
The test system of data set [2] is women that are perimenopausal with depression. Nature of the data set: Open label trial, Hamilton Depression Rating Scale (HAM-D). The note with it: one patient. In kind it is in vivo, human. As for the experimental part:
(§1) The study is a two-week open label trial in women that are perimenopausal with depression during which patients were treated with an oral formulation of Compound 1 in adjunct to standard antidepressant treatment.
[…] Participants were administered daily doses of Compound 1 (up to 120 mg qPM, including 15 mg once a day, 20 mg once a day, 25 mg once a day, 30 mg once a day, 35 mg once a day, 40 mg once a day, 45 mg once a day, 50 mg once a day, 55 mg once a day, 60 mg once a day, 65 mg once a day, 70 mg once a day, 75 mg once a day, 80 mg once a day, 85 mg once a day, 90 mg once a day, 95 mg once a day, 100 mg once a day, 105 mg once a day, 110 mg once a day, 115 mg once a day and 120 mg once a day) for 14 days.
The Primary efficacy outcome was measured by the Hamilton Depression Rating Scale (HAM-D). The HAM-D was administered at baseline (Day 1, predose), Day 4, Day 8, Day 15, Day 21 and Day 28.
HAM-D Response was defined as a reduction from baseline of >50% in total HAM-D score. HAM-D remission was defined as a total HAM-D score of <7.

For data set [3] the test system is unchanged. Briefly: Open label trial, Perimenopausal Depression Questionnaire (Meno-D). In kind it is in vivo, human. The following applies: one patient, 60 mg once a day.
Source text: The Meno-D is a perimenopausal depression rating scale consisting of 12 items, each items is scored on a 5-point scale (ranging from 0 to 4) (Kulkami J, et al., Development and validation of a new rating scale for perimenopausal depression-the Meno-D. Transl Psychiatry. 2018 Jun. 28; 8(1):123). The total score of the 12 items ranges from […] with higher scores indicating more severe perimenopausal depression. The MENO-D has five factors (or domains): Self (four items), Sexual (two items), Somatic (two items), Cognitive (two items) and Sleep (two items). MENO-D assesses the patient's self-esteem, sense of isolation, paranoid thinking, anxiety, interest in socialising, changes in libido and sexual activity, any decrease in energy, physical pain, changes in weight, subjective changes in memory and concentration, and increases in irritability and/or sleep disturbances.
as §1
(§2) Treatment Period: The treatment period was 14 days in duration. Participants were administered daily doses of Compound 1 (up to 120 mg qPM, including 15 mg once a day, 20 mg once a day, 25 mg once a day, 30 mg once a day, 35 mg once a day, 40 mg once a day, 45 mg once a day, 50 mg once a day, 55 mg once a day, 60 mg once a day, 65 mg once a day, 70 mg once a day, 75 mg once a day, 80 mg once a day, 85 mg once a day, 90 mg once a day, 95 mg once a day, 100 mg once a day, 105 mg once a day, 110 mg once a day, 115 mg once a day and 120 mg once a day) for 14 days.
(§3) Secondary outcome measure was by the Clinical Global Impression (CGI), DSM-V MDD Anxious Distress Specifier, the Hamilton Anxiety Rating Scale (HAM-A), the Montgomery-Asberg Depression Rating Scale (MADRS), the Perimenopausal Depression Questionnaire (Meno-D), the Pittsburgh Sleep Quality Index (PSQI), the revised Sabbastberg Sexual Function Scale, the Symptoms of Depression Questionnaire (SDQ), and a vasomotor symptom diary.

The test system is the same in data set [4]. Briefly: Open label trial, vasomotor symptom diary (hot flushes). In kind it is in vivo, human. The note with it: one patient, 60 mg once a day, by Day 4 (baseline 9 per day). The method, then: as §1, §2, §3
The test system is the same in data set [5]. Briefly: Open label trial, safety/tolerability. The class given is in vivo, human. The following applies: one patient, 60 mg dose once a day for 14 days. As for the experimental part: During the study, physical examination, vital signs, ECG, and clinical laboratory tests were conducted. The Modified Observers Assessment of Anesthesia and Sedation, (MOASS) and the Columbia Suicide were performed.

The conditions of data set [6]: human, in vivo, 30 mg.
Procedure: (§4) The Day 1 dose was administered after a minimum of 10 hour fasting. No additional fluid intake was allowed until 1 hour after drug administration. A standard meal was given at least 4 hours post-dose. The Day 5 dose was administered following a high-fat, high calorie meal. Participants remained at the clinical site for a total of 8 days to complete PK sampling after the second dose.
(§5) Pharmacokinetic variables (including but not limited to Cmax, Tmax and AUC(0-last)) were calculated using non-compartmental analysis.
Data set [7] can be described thus: Food Effect Cohort (Cohort 4), plasma pharmacokinetics fasted vs fed. The note with it: Cohort 4, single 30 mg.
Procedure: as §4, §5

Consider `COC[C@@]1(O)CC[C@@]2(C)[C@@H](CC[C@@H]3[C@@H]2CC[C@]2(C)[C@@H](C(=O)Cn4ccnc4)CC[C@@H]32)C1` [Compound 1, 3α-Hydroxy-3β-methoxymethyl-21-(1′-imidazolyl)-5α-pregnan-20-one], for which the “accumulation factor of the dosing interval (ratio of AUCDay14/AUCDay1)” value in data set [1] (Cohort 1, 15.0 mg QD) is reported as “approximately 1.25”. The compound also came in with an AUCinf in data set [1] (Cohort 1, 15.0 mg QD, Day 14 steady state, Geo Mean) of 600.228 ng·h/mL. Moreover, the “accumulation factor of the dosing interval (ratio of AUCDay14/AUCDay1)” value in data set [1] (Cohort 2, 30.0 mg QD) is “approximately 1.25”. Also, in data set [1] (human, in vivo, 15 mg), the AUC0-tau stood at 361.762 ng·h/mL and the Cmax was 56.016 ng/mL. Also, in data set [2] (60 mg once a day for 14 days, Day 15 (baseline 28)), the HAM-D score stood at 8. Moreover, the “improvement in HAM-D score” value in data set [2] (60 mg once a day for 14 days, adjunct to fluoxetine, Day 8) amounted to 48%. Also, in data set [2] (60 mg once a day for 14 days, adjunct to fluoxetine, Day 15), the “improvement in HAM-D score from baseline value” is recorded as 71%. Besides, in data set [2] (60 mg once a day, Day 15), the “HAM-D Remission criterion (total HAM-D score of <7)” value is recorded as “nearly met the HAM-D Remission criterion” and the “HAM-D Response criterion (reduction from baseline of >50%)” value is reported as “met the HAM-D Response criterion”. Besides, the “improvement in MENO-D from baseline value” in data set [3] (Day 8 (baseline 28)) is 54%. Also, the MENO-D classification result in data set [3] (Day 8 and Day 15) is recorded as “no longer met classification for perimenopausal depression requiring clinical attention”. In data set [3] (Day 15), the “improvement in MENO-D factor Cognitive” value was determined as 100%, the “improvement in MENO-D factor Self” value worked out at 63%, the “improvement in MENO-D factor Sexual” value was 43% and the “improvement in MENO-D factor Sleep” value was found to be 40%. The “improvement in MENO-D factor Somatic” value in data set [3] (Day 15) was 50%. Further, the “improvement in MENO-D from baseline value” in data set [3] (Day 15 (baseline 28)) was determined as 57%. Besides, in data set [4], the “decrease in frequency of hot flushes” value was 66%. Further, in data set [5], the adverse event reported entry is “mild epigastric pain after dosing” and the tolerability entry is on record as “well-tolerated”. The “Tmax, fasting compared to fed conditions” value in data set [6] was “tendency for a shorter Tmax”. In addition, the “t1/2, fasted versus fed” value in data set [7] is given as “similar”.

Consider `CNCCC(Oc1ccc(C(F)(F)F)cc1)c1ccccc1` (stereo not drawn) [fluoxetine, reference compound], for which the “clinical response of depression symptoms (HAM-D score and clinical evaluation)” value in data set [2] (15 mg daily taken for 8 months, before Compound 1) was “had not demonstrated a sufficient clinical response”.

For orientation: Cmax means the peak of the concentration-time curve.
